Measured values published in publication PMC10569036.

Legend:
[1] = shake flask on a mixture of 185; loss from the water phase only; LC-Orbitrap peak areas; conditions: room
[2] = shake flask on a mixture of 185; loss from the water phase only; LC-QTOF peak areas; conditions: room

| SMILES | log partition 1-octanol / HPLC water, unbuffered, traces of methanol / DMSO [1] [log10] | log partition butyl acetate / HPLC water, unbuffered, traces of methanol / DMSO [1] [log10] | log partition chloroform / HPLC water, unbuffered, traces of methanol / DMSO [1] [log10] | log partition cyclohexane / HPLC water, unbuffered, traces of methanol / DMSO [1] [log10] | log partition dichloromethane / HPLC water, unbuffered, traces of methanol / DMSO [1] [log10] | log partition n-hexane / HPLC water, unbuffered, traces of methanol / DMSO [1] [log10] | log partition n-octane / HPLC water, unbuffered, traces of methanol / DMSO [1] [log10] | log partition n-undecane / HPLC water, unbuffered, traces of methanol / DMSO [1] [log10] | log partition oleylalcohol / HPLC water, unbuffered, traces of methanol / DMSO [1] [log10] | log partition toluene / HPLC water, unbuffered, traces of methanol / DMSO [1] [log10] | log partition 1-octanol / HPLC water, unbuffered, traces of methanol / DMSO [2] [log10] | log partition butyl acetate / HPLC water, unbuffered, traces of methanol / DMSO [2] [log10] | log partition chloroform / HPLC water, unbuffered, traces of methanol / DMSO [2] [log10] | log partition cyclohexane / HPLC water, unbuffered, traces of methanol / DMSO [2] [log10] | log partition dichloromethane / HPLC water, unbuffered, traces of methanol / DMSO [2] [log10] | log partition n-hexane / HPLC water, unbuffered, traces of methanol / DMSO [2] [log10] | log partition n-octane / HPLC water, unbuffered, traces of methanol / DMSO [2] [log10] | log partition n-undecane / HPLC water, unbuffered, traces of methanol / DMSO [2] [log10] | log partition oleylalcohol / HPLC water, unbuffered, traces of methanol / DMSO [2] [log10] | log partition toluene / HPLC water, unbuffered, traces of methanol / DMSO [2] [log10] |
| --- | --- | --- | --- | --- | --- | --- | --- | --- | --- | --- | --- | --- | --- | --- | --- | --- | --- | --- | --- | --- |
| CCCCNS(=O)(=O)c1ccc(C)cc1 | 1.509 | 1.21 | 1.689 | 0.5819 | 1.83 | 0.2985 | 0.4632 | 0.151 | 0.9177 | 1.122 | 1.761 | 1.471 | 1.664 | 0.988 | 1.556 | 0.6036 | 0.3273 | 0.4324 | 1.505 | 1.679 |
| CN/C(=N/[N+](=O)[O-])NCC1CCOC1 (stereo not shown) | 0.006708 | 0.08365 | 0.01252 | -0.8947 | 0.2723 | -0.6643 | -1.349 | -1.639 | -0.3931 | -0.3042 | -0.7277 | -1.391 | -0.45 | -1.158 | -0.07832 | -1.181 | -1.698 | -1.902 | -1.007 | -1.236 |
